Measured values reported in patent EP2545917B1, “NOVEL EP4 AGONIST” (Kaken Pharmaceutical Co., Ltd., priority 2010, dated 2011).

What was measured:
[1] = system: dextran sodium sulfate-induced colitis; test: Prophylactic effect on dextran sodium sulfate-induced colitis model in mice (BALB/c); assay type: in vivo; settings: 2.2 w/v% DSS
Description: Female BALB/c mice (6 weeks old, Japan SLC) were purchased, acclimated for 1 week and used for the study. Except the normal group, the mice were allowed to freely drink a dextran sodium sulfate (to be abbreviated as DSS, MP Biochemicals, M.W. 36,000 - 50,000, Lot No. 3439J) solution prepared to 2.2 w/v% for 9 days to induce colitis. Compound F was orally administered at doses of 0.1, 0.3 and 1 mg/kg, once a day, daily, from the start day of DSS drinking (day 0) to one day before autopsy (day 9). To the control group was orally administered a solvent (1 vol% ethanol solution) at 10 mL/kg in the same manner.
Thus, to determine the level of diarrhea, the stool was graded into 6 levels; normal (score 0), spherical stool being not less than 50% (score 1), banana-shaped stool being less than 50% (score 2), banana-shaped stool being not less than 50% (score 3), muddy stool (score 4), watery stool (score […]) (stool consistency score). The fecal occult blood (including proctorrhagia) was graded using fecal occult blood slide 5 Shionogi II (Shionogi & Co., Ltd.) into 6 levels; negative (no change of the slide color from yellow, score 0), weakly positive (slightly blue green, score 1), positive (blue green, score 2), moderately positive (clear blue green, score 3), strongly positive (instantaneous color change to dark blue with color developer, score 4), and proctorrhagia (score 5). The sum of the stool consistency score and occult blood score was defined as the stool score. Eight to 10 animals were used for each group, and the results were expressed as average ± standard deviation. On the day of autopsy, after laparotomy under ether anesthesia and blood collection, the mice were exsanguinated to death. Then the large intestines were dissected from just below the cecum to the anus and the length thereof was measured.

[2] = system: concanavalin A-induced hepatitis; test: Prophylactic effect on concanavalin A-induced hepatitis model in mice; assay type: in vivo, BALB/c mice; settings: oral 1 hr before Con A, compound F 1 mg/10 mL/kg, prednisolone 5 mg/10 mL/kg, 20 hr after Con A
Description: BALB/c mice (female, 7 weeks old, Japan SLC) were purchased, acclimated for 1 week and used for the study. Except the no-induction group, Con A (type IV, Sigma-Aldrich) dissolved in saline was administered from the tail vein of the mice at a dose of 12.5 mg/10 mL/kg to induce hepatitis. Twenty hr later, the mice were subjected to laparotomy under ether anesthesia. A 0.5 mL of blood sample was collected from the caudal vena cava and heparinized plasma was obtained to measure plasma ALT and AST activities. Test substances were compound F (1 mg/10 mL solution), prednisolone (Nacalai Tesque, 5 mg/10 mL suspension (with 0.5 w/v% methylcellulose)) and water for injection (administered to the control group), which were orally administered at a volume of 10 mL/kg 1 hr before Con A injection. Seven to 9 animals were used for each group. After logarithmic transformation of the data, one-way analysis of variance was performed for statistical evaluation.

Human EP3 = biological target: T1, Human EP3 (Homo sapiens, UniProt P43115); test: Receptor affinity, tritium-labeled PGE2 binding to membranes of transfected COS-7 cells
T1 construct: expressed in transfected cells; host or cells: COS-7
T1 sequence (P43115 1-390): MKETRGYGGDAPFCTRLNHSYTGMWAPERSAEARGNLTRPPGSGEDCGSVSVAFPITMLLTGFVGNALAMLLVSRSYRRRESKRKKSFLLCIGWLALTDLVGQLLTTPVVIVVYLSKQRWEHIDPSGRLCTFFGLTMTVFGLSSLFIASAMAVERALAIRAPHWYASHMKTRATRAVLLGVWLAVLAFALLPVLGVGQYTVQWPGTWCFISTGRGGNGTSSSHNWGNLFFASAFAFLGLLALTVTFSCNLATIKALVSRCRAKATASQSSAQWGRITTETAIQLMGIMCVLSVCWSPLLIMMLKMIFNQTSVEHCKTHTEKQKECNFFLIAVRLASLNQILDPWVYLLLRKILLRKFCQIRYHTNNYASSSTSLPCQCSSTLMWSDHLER
Description: (§1) COS-7 cells were transfected with the genes of mouse EP4, human EP1-4 or human IP to overexpress the receptor and then the cell membranes were collected. […] The dissociation constant Kd value was obtained and inhibition constant Ki value of each test compound was determined in a conventional method.

Human EP4 = biological target: T2, Human EP4 (Homo sapiens, UniProt P35408); test: as above
T2 construct: expressed in transfected cells; host or cells: COS-7
T2 sequence (P35408 whole entry): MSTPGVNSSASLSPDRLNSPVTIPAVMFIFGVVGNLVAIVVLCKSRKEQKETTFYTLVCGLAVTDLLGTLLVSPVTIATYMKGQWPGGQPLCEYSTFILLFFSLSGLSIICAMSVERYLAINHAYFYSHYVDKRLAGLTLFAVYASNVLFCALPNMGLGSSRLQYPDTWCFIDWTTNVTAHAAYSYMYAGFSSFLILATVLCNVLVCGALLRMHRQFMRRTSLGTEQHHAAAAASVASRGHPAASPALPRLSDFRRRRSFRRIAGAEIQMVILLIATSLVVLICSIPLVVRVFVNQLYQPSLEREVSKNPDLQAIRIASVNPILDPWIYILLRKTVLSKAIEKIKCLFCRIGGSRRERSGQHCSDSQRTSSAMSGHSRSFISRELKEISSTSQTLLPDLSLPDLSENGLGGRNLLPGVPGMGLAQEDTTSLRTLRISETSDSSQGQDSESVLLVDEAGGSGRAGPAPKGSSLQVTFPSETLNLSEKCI
Description: as §1

[3] = system: Human Platelet Aggregation; test: Inhibitory effect on ADP-induced platelet aggregation in platelet-rich plasma; assay type: cell-based; settings: ADP 10 µmol/L, geometric mean of three volunteers
Description: The inhibitory effect of compounds F and J, and carboxylate forms thereof on platelet aggregation was evaluated. The carboxylate forms were prepared by separating and purifying the compound synthesized in Example 15 with a column. Blood was drawn from 3 healthy volunteers using sodium citrate as an anticoagulant, and platelet-rich plasma was prepared. The platelet-rich plasma was treated with physiological saline or test compounds and, 2 min later, platelet aggregation was induced with adenosine diphosphate (ADP, final concentration 10 µmol/L) and recorded with a platelet aggregation measurement apparatus (nephelometry).

[4] = Plasma pharmacokinetics after intravenous administration to rats; assay type: in vivo; settings: male, rat
Description: To verify the in vivo metabolic stability of the compound of the present invention, plasma pharmacokinetics was evaluated after intravenous administration to rats. Male rats (6 weeks old, body weight 160 - 180 g) were acclimated for 1 week, and the animals diagnosed healthy were used. A mixture of compound F and compound J of the present invention described in Table 1 (F:J = 52:41), and a mixture of carboxylate forms of compound F and compound J (F:J = 54:34), and compound F (synthesized in Example 9) were dissolved in a small amount of ethanol and physiological saline was added to prepare test compound solutions. The test compound solutions were instantaneously administered intravenously at 1 mL/kg from the femoral vein of non-fasting rats under light ether anesthesia. Venous blood was drawn from the tail vein 5, 15, 30, 45, 60, 90 and 120 min after administration. The blood was mixed with heparin and centrifuged (3000 rpm, 4°C, 15 min) to obtain plasma. The plasma compound concentration was determined by the internal standard method using LC-MS/MS. The determination range by this method was from 0.1 to 100 ng/mL. The compound concentrations obtained from each rat were analyzed in a model-independent way using a pharmacokinetics analysis software WinNonlin (ver.3.3), and average ± standard deviation of 3 animals for each group was obtained.

Cc1cccc([C@@H](C)[C@H](O)/C=C/[C@@H]2[C@@H]3[C@H](C[C@H]2O)O/C(=C\CCCc2nnn[nH]2)C3(F)F)c1 [Compound F, 4-[(Z)-(1S,5R,6R,7R)-6-[(1E,3R,4R)-3-hydroxy-4-(m-tolyl)-1-pentenyl]-7-hydroxy-2-oxa-4,4-difluoro-bicyclo[3.3.0]octan-3-ylidene]-1-(tetrazol-5-yl)butane]
suppression of the increase in the stool score ([1]; oral 0.1 mg/kg once a day): suppressive tendency | suppression of the increase in the stool score ([1]; oral 0.3 mg/kg once a day): significant | suppression of the increase in the stool score ([1]; oral 1 mg/kg once a day): significant | effect on shortening of the large intestine ([1]; oral 0.1, 0.3 and 1 mg/kg once a day): dose-dependent suppressive effect on shortening of the large intestine | effect on increase of plasma ALT activity [2]: significantly and strongly suppressed the increase | effect on increase of plasma AST activity [2]: significantly and strongly suppressed the increase | Ki (Human EP3): 410 nM | Ki (Human EP4): 6.6 nM | affinity for binding to human EP4 higher than that to human IP (Human EP4; ratio of Ki values): ≥ 100 fold | affinity for binding to human EP4 higher than those to human EP1, EP2 and EP3 receptors (Human EP4; ratio of Ki values): ≥ 60 fold | IC50 [3]: 917 nM | half-life ([4]; iv, 50 ug/kg): 1.92 ± 0.517 h | half-life ([4]; iv, 300 ug/kg): 2.63 ± 0.25 h | half-life ([4]; rats, intravenous, summary of Table 3): 1 to 2 h
